These compounds were tested on MDA-MB-231 cells (assay: 3D culture assay of cancer cell invasion). Conditions: 10 μM.
Format: cell-based, human
Protocol: 3D culture assay is an established platform to study cancer cell invasion, and the ability of compounds to attenuate such cell invasion (Zhang 2015). […] The MDA-MB-231 cell line is an epithelial, human breast cancer cell line.
Briefly, to conduct the 3D culture assay, 12-well plates were coated with […], matrigel per well. After incubating the plates at 37° C. for 15 minutes, MDA-MB-231 cells were plated with about 300 cells per well. The plates were allowed to stand for 45 min in the 37° C. incubator to let the cells deposit into the matrigel. The cells were then covered with 10% matrigel, which contained test compounds. […]

| Structure (SMILES) | invasive growth of MDA-MB-231 cells in 3D culture |
| --- | --- |
| CN(C)C(=O)C(CCN1CCC(O)(c2ccc(Cl)cc2)CC1)(c1ccccc1)c1ccccc1 [Loperamide] | inhibits invasive growth |

Same assay, conditions: 20 μM, 3D culture for 3 days

| Structure (SMILES) | inhibitory activity on breast cancer progression (invasive growth) in 3D culture |
| --- | --- |
| C[N+](C)(C)CC(O)CC(=O)O (racemic) [DL-Carnitine] | inhibitory activity |
| N=C(N)NC(=O)c1nc(Cl)c(N)nc1N [Amiloride] | inhibitory activity |
| CN1CCCC(n2nc(Cc3ccc(Cl)cc3)c3ccccc3c2=O)CC1 (stereo not drawn) [Azelastine] | inhibitory activity |
| O=C(O)c1cc(O)c(O)c(O)c1 [Gallic acid] | inhibitory activity |
| C[N+](C)(C)C[C@H](O)CC(=O)[O-] [L-Carnitine] | inhibitory activity |

Source: patent publication US20220031668A1, “METHODS OF INHIBITING PROCOLLAGEN-LYSINE, 2-OXOGLUTARATE 5-DIOXYGENASE 2” (University of Kentucky Research Foundation, priority 2020, published 2022)
